From patent US7081457B2 (Wyeth, priority 1999, dated 2006) come the findings set out here.

In one data set the test system is ovulation. Description: Ovulation Inhibition. The conditions noted are these: in vivo.
The subject of a further data set is alkaline phosphatase. In words: cells. The conditions noted are these: read-out: EC50 (alkaline phosphatase data, printed in HPR CV-1 column).

On to `CC1(C)OC(=S)Nc2ccc(-c3csc(C#N)c3)cc21` [Compound 2, 4-(4,4-Dimethyl-2-thioxo-1,4-dihydro-2H1-benzo [d][1,3]oxazin-6-yl)-thiophene-2-carbonitrile], for which the “Ovulation Inhibition ED100” value in the data set with ovulation stood at 1 mg/kg.
Compound `CC1(C)OC(=S)Nc2ccc(-c3cccc(C#N)c3)cc21` [Compound 4, 3-(4,4-Dimethyl-2-thioxo-1,4-dihydro-2H-benzo[d][1,3]oxazin-6-yl)-benzonitrile] returned a melting point of 236 to 237 °C. In addition, the EC50 in the data set with alkaline phosphatase came out at 0.4 nM.
For the compound `Cc1cc(C#N)sc1-c1ccc2c(c1)C(C)(C)OC(=S)N2` [Example 16, 5-(4,4-Dimethyl-2-thioxo-1,4-dihydro-2H-3,1-benzoxazin-6-yl)-4-methylthiophene-2-carbonitrile], the melting point fell in the range of 211 to 212 °C.
The same measure, in the same setting: next, `CC1(C)OC(=S)Nc2ccc(-c3cc(F)cc(Cl)c3)cc21` [Example 27, 6-(3-Chloro-5-fluorophenyl)-4,4-dimethyl-1,4-dihydro-2H-3,1-benzoxazine-2-thione]: 204 to 205 °C; `CC1(C)OC(=S)Nc2ccc(-c3cc(F)cc(C(F)(F)F)c3)cc21` [Example 43, 6-[3-Fluoro-5-(trifluoromethyl)phenyl]-4,4-dimethyl-1,4-dihydro-2H-3,1-benzoxazine-2-thione]: 204 to 206 °C; `CC1(C)OC(=S)Nc2ccc(-c3cc(C#N)ccc3F)cc21` [Example 47, 3-(4,4-Dimethyl-2-thioxo-1,4-dihydro-2H-3,1-benzoxazin-6-yl)-4-fluorobenzonitrile]: 250 to 251 °C.

Usually melting point stands for the temperature, or range, at which the solid turns liquid. Broadly, the EC50 is the concentration needed to bring the measured effect to its halfway point.
